System: P. gingivalis adherence to S. gordonii
Experiment: Inhibition of P. gingivalis adherence to S. gordonii in two-species biofilm model
Format: cell-based, P. gingivalis ATCC33277; S. gordonii DL-1
Excerpt: To assess the functional activity of the click products, compounds 28-57 (Groups I and II) and 90-124 (Group III) were examined for inhibition of P. gingivalis adherence to S. gordonii using an established biofilm model system as described in the Section 4.2.1 [41]. For each compound tested, an IC50 value for adherence inhibition was approximated after quantifying the ratio of green to red fluorescence and these values are shown in Tables 2, 3 and 4. Compounds were classified as strong (IC50<10 μM), moderate (IC50=10-20 μM) or weak (IC50>20 μM) inhibitors of adherence. Twelve compounds were identified as strong inhibitors and an additional ten compounds were classified as moderate inhibitors. […] Compounds 54, 56, 93, 95, 100, 102, 103, and 115 were also tested to determine if they affect the growth of P. gingivalis or S. gordonii. […] The sulfoxide group does impart asymmetry to the molecule; however, the mixture of enantiomers, assuming the peracid oxidation was racemic, was not separated and bioassayed. The Group III active compounds (95-117) all contain the 1,3,5-trisubstituted-2,4,6-triazine modeled after the Katzenellenbogen rendering of an active motif whereby the key leucine residues which mimicked the VXXLL receptor box lie in a triangular arrangement. While the original iteration of the Katzenellenbogen VXXLL mimics were the hydrophobic 3,5-disubstituted-di-N-alkyamino-triazine motifs, we introduced the hydrophobic 2- and 4-(fluorophenyl)amino groups at positions 3 and 5 of the 2,4,6-triazine (See Compounds 102, 111, 115, 122).
P. gingivalis ATCC33277 was grown in reduced trypticase soy broth (Difco) supplemented with 0.5 percent yeast extract, 1 μg/mL menadione, and 5 μg/mL hemin. Twenty five milliliters of medium were reduced for 24 h under anaerobic conditions by equilibrating in an atmosphere consisting of 10% CO2, 10% H2, and 80% N2. Following equilibration, P. gingivalis was inoculated in the media and grown for 48 h at 37° C. under anaerobic conditions. S. gordonii DL-1 (1) was cultured aerobically without shaking in brain heart infusion (BHI) broth supplemented with 1 percent yeast extract for 16 hours at 37° C. For some compounds that inhibited P. gingivalis adherence to S. gordonii, we determined their affect the planktonic growth of P. gingivalis and S. gordonii. Broth cultures were grown as described above and compared to cultures grown in the absence of the compound. Cell density of each culture was determined by measuring the optical density at 600 nm (O.D.600 nm) after 24 h of growth. The percent growth inhibition/stimulation was calculated using the following equation: [(O.D.600 nm of the control/O.D.600 nm of the culture grown in the presence of compound)−1]×100.
Two species biofilms were formed essentially as previously described. To prepare bacterial cells for biofilm culture, 10 ml of an overnight S. gordonii culture was centrifuged at 5600 rpm for 5 min and the cell pellet was suspended in 1 mL sterile PBS. Subsequently, 20 μL of 5 mg/ml hexidium iodide (Molecular Probes) was added to the cell suspension and incubated for 15 min with gentle shaking at room temperature in the dark. The labeled cells were centrifuged as described above, washed with phosphate buffered saline (10 mM Na2HPO4, […], […], and 2.7 mM KCl, pH 7.2; [PBS]) and the cell pellet was suspended in PBS at a final O.D.600 nm of 0.8. Similarly, 10 mL of a 48 h culture of P. gingivalis was centrifuged at 5600 rpm for 15 min, the cell pellet was suspended in 1 mL PBS and 20 μl of 5(6)-carboxyfluorescein N-hydroxysuccinimide ester (4 mg/ml, Molecular Probes, Inc.) was added. After incubation for 30 min with gentle shaking at room temperature in the dark, the suspension was centrifuged and washed as described above and suspended in PBS at a final O.D.600 nm of 0.4. […]

[1] = Table 3, Group II click products, concentration reducing green to red fluorescence ratio by 50%, approximated
[2] = Table 2, Group I triazoles, concentration reducing ratio of green (P. gingivalis) to red (S. gordonii) fluorescence by 50%, approximated

[O-][S+](Cc1nc(-c2ccc(F)cc2)c(-c2ccc(F)cc2)o1)c1ccc(-n2cc(-c3cccc(F)c3)nn2)cc1 (centres unmarked) [Compound 46]
IC50 [1]: 5.3 µM

O=S(=O)(Cc1nc(-c2ccccc2)c(-c2ccccc2)o1)c1ccc(-n2cc(-c3ccc(Oc4ccccc4)cc3)nn2)cc1 [Compound 44]
IC50 [2]: 16.5 µM

[O-][S+](Cc1nc(-c2ccccc2)c(-c2ccccc2)o1)c1ccc(-n2cc(-c3cc(C(F)(F)F)cc(C(F)(F)F)c3)nn2)cc1 (centres unmarked) [Compound 36]
IC50 [2]: > 60 µM

Fc1ccc(Nc2nc(Nc3ccc(F)cc3)nc(-c3cn(-c4cccc(-c5nc(-c6ccco6)c(-c6ccco6)o5)c4)nn3)n2)cc1 [Compound 123]
IC50 (Group III): 8 µM

O=S(=O)(Cc1nc(-c2ccccc2)c(-c2ccccc2)o1)c1ccc(-n2cc(-c3ccc(F)cc3)nn2)cc1 [Compound 38]
IC50 [2]: 15.7 µM

COc1ccccc1-c1cn(-c2ccc([S+]([O-])Cc3nc(-c4ccc(F)cc4)c(-c4ccc(F)cc4)o3)cc2)nn1 (centres unmarked) [Compound 48]
IC50 [1]: 7.2 µM

Fc1ccc(Nc2nc(Nc3ccc(F)cc3)nc(-c3cn(-c4ccc(-c5nc(-c6ccccc6)c(-c6ccccc6)o5)cc4)nn3)n2)cc1 [Compound 112]
IC50 (Group III): > 60 µM

Fc1ccc(Nc2nc(Nc3ccc(F)cc3)nc(-c3cn(-c4ccccc4-c4nc(-c5ccc(F)cc5)c(-c5ccc(F)cc5)o4)nn3)n2)cc1 [Compound 113]
IC50 (Group III): 49.2 µM

O=S(=O)(Cc1nc(-c2ccccc2)c(-c2ccccc2)o1)c1ccc(-n2cc(-c3cccnc3)nn2)cc1 [Compound 37]
IC50 [2]: > 60 µM

Fc1ccccc1Nc1nc(Nc2ccccc2F)nc(-c2cn(-c3cccc(-c4nc(-c5ccc(Cl)cc5)c(-c5ccc(Cl)cc5)o4)c3)nn2)n1 [Compound 104]
IC50 (Group III): 33.8 µM

[O-][S+](Cc1nc(-c2ccc(F)cc2)c(-c2ccc(F)cc2)o1)c1ccc(-n2cc(-c3ccc(F)cc3)nn2)cc1 (centres unmarked) [Compound 47]
IC50 [1]: 35.9 µM

CCCCCc1ccc(-c2cn(-c3ccc(S(=O)(=O)Cc4nc(-c5ccccc5)c(-c5ccccc5)o4)cc3)nn2)cc1 [Compound 43]
IC50 [2]: 36.6 µM

Fc1ccccc1Nc1nc(Nc2ccccc2F)nc(-c2cn(-c3ccc(-c4nc(-c5ccccc5)c(-c5ccccc5)o4)cc3)nn2)n1 [Compound 101]
IC50 (Group III): > 60 µM

O=S(=O)(Cc1nc(-c2ccccc2)c(-c2ccccc2)o1)c1ccc(-n2cc(-c3cc(C(F)(F)F)cc(C(F)(F)F)c3)nn2)cc1 [Compound 45]
IC50 [2]: 38.5 µM

[O-][S+](Cc1nc(-c2ccc(Cl)cc2)c(-c2ccc(Cl)cc2)o1)c1ccc(-n2cc(-c3ccc(F)cc3)nn2)cc1 (centres unmarked) [Compound 50]
IC50 [1]: 39.8 µM

COc1ccccc1-c1cn(-c2ccc([S+]([O-])Cc3nc(-c4ccccc4)c(-c4ccccc4)o3)cc2)nn1 (centres unmarked) [Compound 31]
IC50 [2]: > 60 µM

CCN(CC)c1nc(-c2cn(-c3cccc(-c4nc(-c5ccccc5)c(-c5ccccc5)o4)c3)nn2)nc(N(CC)CC)n1 [Compound 90]
IC50 (Group III): 20.7 µM

[O-][S+](Cc1nc(-c2ccccc2)c(-c2ccccc2)o1)c1ccc(-n2cc(-c3cccc(F)c3)nn2)cc1 (centres unmarked) [Compound 30]
IC50 [2]: 47.3 µM

COc1ccc2cc(-c3cn(-c4ccc([S+]([O-])Cc5nc(-c6ccccc6)c(-c6ccccc6)o5)cc4)nn3)ccc2c1 (centres unmarked) [Compound 33]
IC50 [2]: > 60 µM

[O-][S+](Cc1nc(-c2ccc(Cl)cc2)c(-c2ccc(Cl)cc2)o1)c1ccc(-n2cc(-c3cccc(F)c3)nn2)cc1 (centres unmarked) [Compound 49]
IC50 [1]: 15.1 µM

COc1ccc(-c2nc(-c3ccc(-n4cc(-c5nc(Nc6ccccc6F)nc(Nc6ccccc6F)n5)nn4)cc3)oc2-c2ccc(OC)cc2)cc1 [Compound 107]
IC50 (Group III): 40 µM

CCN(CC)c1nc(-c2cn(-c3cccc(-c4nc(-c5ccc(F)cc5)c(-c5ccc(F)cc5)o4)c3)nn2)nc(N(CC)CC)n1 [Compound 92]
IC50 (Group III): > 60 µM

CCN(CC)c1nc(-c2cn(-c3cccc(-c4nc(-c5ccc(OC)cc5)c(-c5ccc(OC)cc5)o4)c3)nn2)nc(N(CC)CC)n1 [Compound 96]
IC50 (Group III): > 60 µM

CCN(CC)c1nc(-c2cn(-c3ccc(-c4nc(-c5ccc(OC)cc5)c(-c5ccc(OC)cc5)o4)cc3)nn2)nc(N(CC)CC)n1 [Compound 97]
IC50 (Group III): 36.6 µM

COc1ccc(-c2nc(-c3ccccc3-n3cc(-c4nc(Nc5ccc(F)cc5)nc(Nc5ccc(F)cc5)n4)nn3)oc2-c2ccc(OC)cc2)cc1 [Compound 119]
IC50 (Group III): > 60 µM

Fc1ccc(Nc2nc(Nc3ccc(F)cc3)nc(-c3cn(-c4ccccc4-c4nc(-c5ccc(Cl)cc5)c(-c5ccc(Cl)cc5)o4)nn3)n2)cc1 [Compound 116]
IC50 (Group III): > 40 µM

O=S(=O)(Cc1nc(-c2ccc(Cl)cc2)c(-c2ccc(Cl)cc2)o1)c1ccc(-n2cc(-c3cccc(F)c3)nn2)cc1 [Compound 55]
IC50 [1]: 18.2 µM

COc1ccc(-c2nc(-c3cccc(-n4cc(-c5nc(Nc6ccccc6F)nc(Nc6ccccc6F)n5)nn4)c3)oc2-c2ccc(OC)cc2)cc1 [Compound 106]
IC50 (Group III): > 60 µM

CCN(CC)c1nc(-c2cn(-c3cccc(-c4nc(-c5ccco5)c(-c5ccco5)o4)c3)nn2)nc(N(CC)CC)n1 [Compound 98]
IC50 (Group III): > 60 µM

COc1ccccc1-c1cn(-c2ccc(S(=O)(=O)Cc3nc(-c4ccccc4)c(-c4ccccc4)o3)cc2)nn1 [Compound 40]
IC50 [2]: 13.1 µM

COc1ccc2cc(-c3cn(-c4ccc(S(=O)(=O)Cc5nc(-c6ccccc6)c(-c6ccccc6)o5)cc4)nn3)ccc2c1 [Compound 42]
IC50 [2]: > 60 µM

Fc1ccc(Nc2nc(Nc3ccc(F)cc3)nc(-c3cn(-c4cccc(-c5nc(-c6ccc(F)cc6)c(-c6ccc(F)cc6)o5)c4)nn3)n2)cc1 [Compound 114]
IC50 (Group III): > 60 µM

Fc1ccccc1Nc1nc(Nc2ccccc2F)nc(-c2cn(-c3ccc(-c4nc(-c5ccco5)c(-c5ccco5)o4)cc3)nn2)n1 [Compound 109]
IC50 (Group III): > 60 µM

CCN(CC)c1nc(-c2cn(-c3ccc(-c4nc(-c5ccco5)c(-c5ccco5)o4)cc3)nn2)nc(N(CC)CC)n1 [Compound 99]
IC50 (Group III): > 60 µM

[O-][S+](Cc1nc(-c2ccccc2)c(-c2ccccc2)o1)c1ccc(-n2cc(-c3ccc(F)cc3)nn2)cc1 (centres unmarked) [Compound 29]
IC50 [2]: > 60 µM

[O-][S+](Cc1nc(-c2ccccc2)c(-c2ccccc2)o1)c1ccc(-n2cc(-c3ccc(Oc4ccccc4)cc3)nn2)cc1 (centres unmarked) [Compound 35]
IC50 [2]: > 60 µM

Fc1ccc(Nc2nc(Nc3ccc(F)cc3)nc(-c3cn(-c4ccccc4-c4nc(-c5ccccc5)c(-c5ccccc5)o4)nn3)n2)cc1 [Compound 110]
IC50 (Group III): > 60 µM

CCCCCc1ccc(-c2cn(-c3ccc([S+]([O-])Cc4nc(-c5ccccc5)c(-c5ccccc5)o4)cc3)nn2)cc1 (centres unmarked) [Compound 34]
IC50 [2]: > 60 µM

O=S(=O)(Cc1nc(-c2ccccc2)c(-c2ccccc2)o1)c1ccc(-n2cc(-c3ccccc3C(F)(F)F)nn2)cc1 [Compound 41]
IC50 [2]: > 60 µM

COc1ccc(-c2nc(-c3ccc(-n4cc(-c5nc(Nc6ccc(F)cc6)nc(Nc6ccc(F)cc6)n5)nn4)cc3)oc2-c2ccc(OC)cc2)cc1 [Compound 121]
IC50 (Group III): > 60 µM

COc1ccc(-c2nc(-c3cccc(-n4cc(-c5nc(Nc6ccc(F)cc6)nc(Nc6ccc(F)cc6)n5)nn4)c3)oc2-c2ccc(OC)cc2)cc1 [Compound 120]
IC50 (Group III): > 60 µM

CCN(CC)c1nc(-c2cn(-c3cccc(-c4nc(-c5ccc(Cl)cc5)c(-c5ccc(Cl)cc5)o4)c3)nn2)nc(N(CC)CC)n1 [Compound 94]
IC50 (Group III): 16 µM

[O-][S+](Cc1nc(-c2ccccc2)c(-c2ccccc2)o1)c1ccc(-n2cc(-c3cccnc3)nn2)cc1 (racemic) [Compound 28, 4,5-Diphenyl-2-(((4-(4-(pyridin-3-yl)-1H-1,2,3-triazol-1-yl)phenyl)sulfinyl)methyl) oxazole]
IC50 [2]: > 60 µM

Fc1ccccc1Nc1nc(Nc2ccccc2F)nc(-c2cn(-c3cccc(-c4nc(-c5ccco5)c(-c5ccco5)o4)c3)nn2)n1 [Compound 108]
IC50 (Group III): > 60 µM

Source: US12215104B2, “Anti-biofilm compounds” (UNIVERSITY OF LOUISVILLE RESEARCH FOUNDATION, INC., priority 2018, dated 2025)
